This is an account of results in patent US8987250B2 (Gilead Sciences, Inc., priority 2012, dated 2015).

Like-named read-outs stand apart in the source and are kept apart here.

In this experiment the test system is HIV-IIIb. Briefly: Test A: Antiviral Assay in MT4 Cells. The settings on record: MT-4 cells infected with HIV-IIIb, 5 days of incubation, CellTiter-Glo, read-out: EC50. Type of experiment: cell-based. Put shortly:
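Read-out: CellTiter-Glo chemiluminescence after 5-day incubation at 37 °C. Compounds tested as 3-fold serial dilutions (10 concentrations, quadruplicate) in RPMI 1640 with 10% FBS, on MT-4 cells pre-infected at 37 °C with HIV-IIIb at 0.004 m.o.i.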
For orientation: Cellular ATP, detected with luciferase, serves as a proxy for viable cell number.

[1] abbreviates: Human immunodeficiency virus 1, IIIB, MT4, 120 h, Table 2.
Setting [2] is: Human immunodeficiency virus 1, IIIB, MT4, 120 h, Table 1.

As to `Cc1cc2nc(-c3ccnc(-c4ccc5c(cnn5C5COC5)c4)c3)sc2c(-c2ccc(Cl)cc2)c1[C@H](OC(C)(C)C)C(=O)O` [Compound 372], the EC50 under setting [1] stood at 7 nM. With `Cc1cc2nc(-c3ccn4c(C)nnc4c3)sc2c(-c2ccc(Cl)cc2)c1[C@H](OC(C)(C)C)C(=O)O` [Compound 317, (S)-2-tert-butoxy-2-(7-(4-chlorophenyl)-5-methyl-2-(3-methyl-[1,2,4]triazolo[4,3-a]pyridin-7-yl)benzo[d]thiazol-6-yl)acetic acid], the EC50 under setting [1] is 13 nM. Consider `Cc1cc2nc(-c3cccc(-c4cncnc4)c3)sc2c(-c2ccc(Cl)cc2)c1[C@H](OC(C)(C)C)C(=O)O` [Compound 106, (S)-2-tert-butoxy-2-(7-(4-chlorophenyl)-5-methyl-2-(3-(pyrimidin-5-yl)phenyl)benzo[d]thiazol-6-yl)acetic acid], for which the EC50 under setting [2] stood at 103 nM.

Consider `Cc1cc2nc(-c3cccc(-c4ccccc4)c3F)sc2c(-c2ccc(Cl)cc2)c1[C@H](OC(C)(C)C)C(=O)O` [Compound 162], for which the EC50 under setting [2] is 350 nM. As to `Cc1cc2nc(-c3ccc4c(=O)n(C)n(C)c4c3)sc2c(-c2ccc(Cl)cc2)c1[C@H](OC(C)(C)C)C(=O)O` [Compound 194, (S)-2-tert-butoxy-2-(7-(4-chlorophenyl)-2-(1,2-dimethyl-3-oxo-2,3-dihydro-1H-indazol-6-yl)-5-methylbenzo[d]thiazol-6-yl)acetic acid], the EC50 under setting [1] came out at 21 nM. Consider `Cc1cc2nc(-c3ccnc(-c4ccc5nn(C)cc5c4C)c3)sc2c(-c2ccc(Cl)cc2)c1[C@H](OC(C)(C)C)C(=O)O` [Compound 418], for which the EC50 under setting [1] came to 11 nM.

For the compound `Cc1cc2nc(-c3ccn4nnc(C)c4c3)sc2c(-c2ccc(Cl)cc2)c1[C@H](OC(C)(C)C)C(=O)O` [Compound 318, (S)-2-tert-butoxy-2-(7-(4-chlorophenyl)-5-methyl-2-(3-methyl-[1,2,3]triazolo[1,5-a]pyridin-5-yl)benzo[d]thiazol-6-yl)acetic acid], the EC50 under setting [1] came to 10 nM. As to `Cc1cc2nc(-c3ccnc(-n4ccc5ccccc5c4=O)c3)sc2c(-c2ccc(Cl)cc2)c1[C@H](OC(C)(C)C)C(=O)O` [Compound 462], the EC50 under setting [1] amounted to 42 nM. Regarding `Cc1cc2nc(-c3cc(-c4ccc5c(c4)c(C)nn5C)nc(N4CCN(C)CC4)c3)sc2c(-c2ccc(Cl)cc2)c1[C@H](OC(C)(C)C)C(=O)O` [Compound 255, (S)-2-tert-butoxy-2-(7-(4-chlorophenyl)-2-(2-(1,3-dimethyl-1H-indazol-5-yl)-6-(4-methylpiperazin-1-yl)pyridin-4-yl)-5-methylbenzo[d]thiazol-6-yl)acetic acid], the EC50 under setting [1] is 12 nM. As to `Cc1cc2nc(-c3ccc4nn(C5CCN(C)CC5)cc4n3)sc2c(-c2ccc(Cl)cc2)c1[C@H](OC(C)(C)C)C(=O)O` [Compound 360], the EC50 under setting [1] came out at 13 nM. Still for that read-out and setting: in the case of `Cc1cc2nc(-c3ccc4c(c3)c(-c3cncnc3)nn4C)sc2c(-c2ccc(Cl)cc2)c1[C@H](OC(C)(C)C)C(=O)O` [Compound 497, (S)-2-tert-butoxy-2-(7-(4-chlorophenyl)-5-methyl-2-(1-methyl-3-(pyrimidin-5-yl)-1H-indazol-5-yl)benzo[d]thiazol-6-yl)acetic acid] it was 4 nM; in that of `Cc1cc2nc(-c3ccc4nc[nH]c4c3)sc2c(-c2ccc(Cl)cc2)c1[C@H](OC(C)(C)C)C(=O)O` [Compound 287, (S)-2-(2-(1H-benzo[d]imidazol-6-yl)-7-(4-chlorophenyl)-5-methylbenzo[d]thiazol-6-yl)-2-(tert-butoxy)acetic acid], 113 nM. `Cc1cc2nc(N3CCc4ccccc4C3)sc2c(-c2ccc(Cl)cc2)c1[C@H](OC(C)(C)C)C(=O)O` [Compound 208, (S)-2-tert-butoxy-2-(7-(4-chlorophenyl)-2-(3,4-dihydroisoquinolin-2(1H)-yl)-5-methylbenzo[d]thiazol-6-yl)acetic acid]: the EC50 under setting [1] was found to be 62 nM. As to `Cc1cc2nc(-c3ccnc(-c4ccc5nc(N)ccc5c4)c3)sc2c(-c2ccc(Cl)cc2)c1[C@H](OC(C)(C)C)C(=O)O` [Compound 193, (S)-2-(2-(2-(2-aminoquinolin-6-yl)pyridin-4-yl)-7-(4-chlorophenyl)-5-methylbenzo[d]thiazol-6-yl)-2-tert-butoxyacetic acid], the EC50 under setting [1] was found to be 9 nM.

As for `Cc1cc2nc(-c3ccc4c(c3)[nH]c(=O)n4C)sc2c(-c2ccc(Cl)cc2)c1[C@H](OC(C)(C)C)C(=O)O` [Compound 303, (S)-2-tert-butoxy-2-(7-(4-chlorophenyl)-5-methyl-2-(1-methyl-2-oxo-2,3-dihydro-1H-benzo[d]imidazol-5-yl)benzo[d]thiazol-6-yl)acetic acid], the EC50 under setting [1] is 19 nM. In the case of `COC1CN(c2nc3cc(C)c([C@H](OC(C)(C)C)C(=O)O)c(-c4ccc5c6c(ccnc46)CCO5)c3s2)C1` (atropisomer, axis not shown) [Compound 54, (S)-2-tert-butoxy-2-((S)-7-(2,3-dihydropyrano[4,3,2-de]quinolin-7-yl)-2-(3-methoxyazetidin-1-yl)-5-methylbenzo[d]thiazol-6-yl)acetic acid], the EC50 (Table 1) turned out to be 274 nM.

On to `Cc1cc2nc(-c3cccc(-c4cnc5cnn(C)c5c4)c3)sc2c(-c2ccc(Cl)cc2)c1[C@H](OC(C)(C)C)C(=O)O` [Compound 137], for which the EC50 under setting [2] came to 21 nM.

As to `Cc1cc2nc(-c3cnc4c(c3)c(N3CCN(C)CC3)cn4C)sc2c(-c2ccc(Cl)cc2)c1[C@H](OC(C)(C)C)C(=O)O` [Compound 377], the EC50 under setting [1] stood at 32 nM. `Cc1cc2nc(-c3ccnc(-c4cnc5c(c4)c(C)cn5C)c3)sc2c(-c2ccc(Cl)cc2)c1[C@H](OC(C)(C)C)C(=O)O` [Compound 199, (S)-2-tert-butoxy-2-(7-(4-chlorophenyl)-2-(2-(1,3-dimethyl-1H-pyrrolo[2,3-b]pyridin-5-yl)pyridine-4-yl)-5-methylbenzo[d]thiazol-6-yl)acetic acid]: where the note is “Table 2”, the EC50 was determined as 95 nM. In the case of `Cc1cc2nc(-c3ccnc(-c4ccc5c(c4)OCCN5C)c3)sc2c(-c2ccc(Cl)cc2)c1[C@H](OC(C)(C)C)C(=O)O` [Compound 400], under setting [1], the EC50 was determined as 16 nM. On the same count and under the same terms, for `Cc1cc2nc(-c3ccnc(-c4ccc5c(c4)CCN5C)c3)sc2c(-c2ccc(Cl)cc2)c1[C@H](OC(C)(C)C)C(=O)O` [Compound 397] the value was 32 nM; for `Cc1cc2nc(-c3ccc4c(c3)nnn4C)sc2c(-c2ccc(Cl)cc2)c1[C@H](OC(C)(C)C)C(=O)O` [Compound 210, (S)-2-tert-butoxy-2-(7-(4-chlorophenyl)-5-methyl-2-(1-methyl-1H-benzo[d][1,2,3]triazol-5-yl)benzo[d]thiazol-6-yl)acetic acid], 6 nM; for `Cc1cc2nc(-c3ccnc(C4=CCOCC4)n3)sc2c(-c2ccc(Cl)cc2)c1[C@H](OC(C)(C)C)C(=O)O` [Compound 341], 14 nM. `Cc1cc2nc(-c3cccc(N4CCN(C5COC5)CC4)n3)sc2c(-c2ccc(Cl)cc2)c1[C@H](OC(C)(C)C)C(=O)O` [Compound 308, (S)-2-tert-butoxy-2-(7-(4-chlorophenyl)-5-methyl-2-(6-(4-(oxetan-3-yl)piperazin-1-yl)pyridin-2-yl)benzo[d]thiazol-6-yl)acetic acid]: the EC50 under setting [1] came out at 6 nM. For the compound `Cc1cc2nc(N3Cc4ccccc4C(F)(F)C3)sc2c(-c2ccc(Cl)cc2)c1[C@H](OC(C)(C)C)C(=O)O` [Compound 436], under setting [1], the EC50 was found to be 67 nM. Turning to `Cc1cc2nc(-c3cccc(-c4cnn(C)c4C)c3)sc2c(-c2ccc(Cl)cc2)c1[C@H](OC(C)(C)C)C(=O)O` [Compound 120, (S)-2-tert-butoxy-2-(7-(4-chlorophenyl)-2-(3-(1,5-dimethyl-1H-pyrazol-4-yl)phenyl)-5-methylbenzo[d]thiazol-6-yl)acetic acid], the EC50 under setting [2] turned out to be 23 nM.

Take `Cc1cc2nc(-c3ccnc(-c4ccc5[nH]ncc5c4C)c3)sc2c(-c2ccc(Cl)cc2)c1[C@H](OC(C)(C)C)C(=O)O` [Compound 421]: the EC50 under setting [1] was 20 nM. With `Cc1cc2nc(-c3cccc(-c4ccc5c(cnn5C)c4)c3)sc2c(-c2ccc3c(c2)OC(C)O3)c1[C@H](OC(C)(C)C)C(=O)O` (stereo partly drawn) [Compound 119, (2S)-2-tert-butoxy-2-(5-methyl-2-(3-(1-methyl-1H-indazol-5-yl)phenyl)-7-(2-methylbenzo[d][1,3]dioxol-5-yl)benzo[d]thiazol-6-yl)acetic acid], the EC50 under setting [2] amounted to 237 nM. For `Cc1cc2nc(-c3ccc4c(N)nn(C)c4c3)sc2c(-c2ccc(Cl)cc2)c1[C@H](OC(C)(C)C)C(=O)O` [Compound 266, (S)-2-(2-(3-amino-1-methyl-1H-indazol-6-yl)-7-(4-chlorophenyl)-5-methylbenzo[d]thiazol-6-yl)-2-tert-butoxyacetic acid], the EC50 under setting [1] was 10 nM. In the case of `Cc1cc2nc(-c3cnc4c(c3)c(C3=CCN(C)CC3)cn4C)sc2c(-c2ccc(Cl)cc2)c1[C@H](OC(C)(C)C)C(=O)O` [Compound 378], the 50% effective concentration (EC50) under setting [1] was determined as 51 nM. On to `Cc1cc2nc(-c3ccc4c(c3)CC(=O)N4C)sc2c(-c2ccc(Cl)cc2)c1[C@H](OC(C)(C)C)C(=O)O` [Compound 239, (S)-2-tert-butoxy-2-(7-(4-chlorophenyl)-5-methyl-2-(1-methyl-2-oxoindolin-5-yl)benzo[d]thiazol-6-yl)acetic acid], for which the EC50 under setting [1] is 26 nM. Still for that read-out and setting: for `Cc1cc2nc(-c3ccnc(-c4ccc5c(c4)N(C)CC5)c3)sc2c(-c2ccc(Cl)cc2)c1[C@H](OC(C)(C)C)C(=O)O` [Compound 399] the value was 43 nM; for `Cc1nc2c([nH]1)CCN(c1nc3cc(C)c([C@H](OC(C)(C)C)C(=O)O)c(-c4ccc(Cl)cc4)c3s1)C2` [Compound 293, (S)-2-tert-butoxy-2-(7-(4-chlorophenyl)-5-methyl-2-(2-methyl-6,7-dihydro-1H-imidazo[4,5-c]pyridin-5(4H)-yl)benzo[d]thiazol-6-yl)acetic acid], 215 nM.

The EC50 is the concentration needed to bring the measured effect to its halfway point.
